In the test the target is T1, Recombinant human VAP-1 SSAO (Homo sapiens, UniProt Q16853).
T1 sequence (Q16853 1-763): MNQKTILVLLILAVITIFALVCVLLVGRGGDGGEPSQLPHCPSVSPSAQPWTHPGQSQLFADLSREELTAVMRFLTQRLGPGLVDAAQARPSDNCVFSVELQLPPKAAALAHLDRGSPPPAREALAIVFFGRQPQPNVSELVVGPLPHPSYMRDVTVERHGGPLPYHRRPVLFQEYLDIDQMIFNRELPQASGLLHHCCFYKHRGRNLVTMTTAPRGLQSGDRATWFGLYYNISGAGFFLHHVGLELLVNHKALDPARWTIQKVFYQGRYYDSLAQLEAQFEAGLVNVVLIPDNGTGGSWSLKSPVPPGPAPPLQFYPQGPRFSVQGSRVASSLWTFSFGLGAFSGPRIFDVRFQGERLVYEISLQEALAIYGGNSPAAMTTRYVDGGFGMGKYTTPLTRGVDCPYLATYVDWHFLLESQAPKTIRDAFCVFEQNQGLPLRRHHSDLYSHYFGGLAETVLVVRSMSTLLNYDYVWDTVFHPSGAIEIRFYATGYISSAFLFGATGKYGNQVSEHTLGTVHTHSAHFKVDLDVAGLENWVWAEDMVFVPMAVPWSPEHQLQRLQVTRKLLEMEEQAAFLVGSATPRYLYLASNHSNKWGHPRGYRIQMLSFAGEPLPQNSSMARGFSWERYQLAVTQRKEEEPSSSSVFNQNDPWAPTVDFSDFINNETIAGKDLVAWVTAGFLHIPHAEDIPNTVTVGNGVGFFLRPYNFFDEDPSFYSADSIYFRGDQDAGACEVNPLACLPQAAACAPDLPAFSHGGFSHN
Put plainly: In vitro inhibition of VAP-1 SSAO activity (coupled colourimetric method). In kind it is biochemical. To be noted: for IC50: 1 mM benzylamine, 1 h at 37° C.; for Selectivity for VAP-1 SSAO over MAO: ratio of total rat MAO IC50 to human VAP-1 SSAO IC50. As for the experimental part:
VAP-1 SSAO activity was measured using the coupled colourimetric method essentially as described for monoamine oxidase and related enzymes (Holt, A., et al., Anal. Biochem. 244:384-392 (1997)). Recombinant human VAP-1 SSAO expressed in Chinese Hamster Ovary (CHO) cells was used as a source of VAP-1 SSAO for activity measurements. […] These cells and their culture have previously been described (Smith, D. J., et al., J. Exp. Med. 188:17-27 (1998)). A cell lysate was prepared by suspending approximately 3.6×10^8 cells in 25 ml lysis buffer (150 mM NaCl, 10 mM Tris-Base pH 7.2, 1.5 mM MgCl2, 1% NP40) and incubating at 4° C. overnight on a rotating table. The lysate was clarified by centrifugation at 18000 g for 5 min at room temperature and the supernatant used directly in the assay. The VAP-1 SSAO assay was performed in 96 well microtitre plates as follows. To each well was added a predetermined amount of inhibitor if required. […] Controls lacked inhibitor. The inhibitor was in a total volume of 20 μl in water. The following reagents were then added. 0.2 M potassium phosphate buffer pH 7.6 to a total reaction volume of 200 μl, 45 μl of freshly made chromogenic solution containing 1 mM 2,4-dichlorophenol, 500 μM 4-aminoantipyrine and 4 U/ml horseradish peroxidase and an amount of CHO cell lysate containing VAP-1 SSAO that caused a change of 0.6 A490 per h. […] The plates were incubated for 30 min at 37° C. and the background absorbance measured at 490 nm using a Wallac Victor II multilabel counter. To initiate the enzyme reaction 20 μl 10 mM benzylamine (final concentration=1 mM) was added and the plate incubated for 1 h at 37° C. The increase in absorbance, reflecting VAP-1 SSAO activity, was measured at 490 nm. Inhibition was presented as percent inhibition compared to control after correcting for background absorbance and IC50 values calculated using GraphPad Prism.

The mark [1] stands for this setting: lysate of CHO cells expressing recombinant human VAP-1 SSAO, read-out: VAP-1 SSAO inhibitory activity IC50.
Where [2] appears, read: VAP-1 SSAO inhibitory activity IC50, lysate of CHO cells expressing recombinant human VAP-1 SSAO.

Structures are written as SMILES. Structures can show the parent of a compound that is named as a salt. Where two headings read alike, the source gives them in different places. Bounds are passed on as bounds.

As a reminder, the IC50 is the concentration that inhibits the measured activity by half. For the molecule `CC[C@@H]([C@H](O)c1ccccc1)N(C)N` (racemic) [Compound 21], the “Selectivity for VAP-1 SSAO over MAO” value is reported as 158. In addition, under setting [1], the IC50 came out at 0.26 µM.

For `C[C@@H]([C@H](O)c1ccccc1)N(N)Cc1ccccc1` (racemic) [Compound 17], the “Selectivity for VAP-1 SSAO over MAO” value is 6. Also, under setting [1], the IC50 was 34 µM.

`C[C@H]([C@@H](O)c1ccccc1)[N+](C)(C)N` (relative stereo) [Compound 4, (1R*,2S*)-1-(2-hydroxy-1-methyl-2-phenylethyl)-1,1-dimethylhydrazinium iodide]: the “Selectivity for VAP-1 SSAO over MAO” value is reported as “≈10”. Moreover, the IC50 under setting [1] was more than 50 µM.

With `COc1ccc(C(O)CNN)cc1` (racemic) [Compound 35], the “Selectivity for VAP-1 SSAO over MAO” value is reported as 207. Besides, under setting [1], the IC50 amounted to 0.029 µM.

In the case of `CN(N)C(C)(C)C(O)c1ccccc1` (racemic) [Compound 20], the “Selectivity for VAP-1 SSAO over MAO” value is reported as 98. Moreover, under setting [1], the IC50 amounted to 0.52 µM.

In the case of `NN1Cc2ccccc2CC1CO` (racemic) [Compound 46], the “Selectivity for VAP-1 SSAO over MAO” value is on record as less than 61. Moreover, the IC50 under setting [1] was more than 10 µM.

As for `COc1cc2c(cc1OC)C(CCO)N(N)CC2` (racemic) [Compound 45], the “Selectivity for VAP-1 SSAO over MAO” value is recorded as 6. Moreover, the IC50 under setting [1] amounted to 8.1 µM.

With `CCCN(N)C(C)C(O)c1ccccc1` (racemic) [Compound 14], the “Selectivity for VAP-1 SSAO over MAO” value is given as more than 6. For the same molecule, the IC50 under setting [1] came to 129 µM.

Take `COc1ccc(C(O)CN(C)N)cc1` (stereo not drawn) [Compound 9, 2-(1-methylhydrazino)-1-(p-methoxyphenyl)ethanol hydrogenfumarate]: the “Selectivity for VAP-1 SSAO over MAO” value is 116. For the same molecule, under setting [1], the IC50 worked out at 0.31 µM.

With `CCN(N)[C@@H](C)[C@H](O)c1ccccc1` (racemic) [Compound 13], the “Selectivity for VAP-1 SSAO over MAO” value was 16. Also, under setting [1], the IC50 turned out to be 1.52 µM.

For the molecule `C[C@@H]([C@H](O)c1ccccc1)N(C)N` [Compound 1, (1R,2S)-2-(1-Methylhydrazino)-1-phenyl-1-propanol hydrogenmaleate], the “Selectivity for VAP-1 SSAO over MAO” value is 141. Further, the IC50 under setting [2] came to 0.22 µM.

For the molecule `CCC[C@@H](NN)[C@@H](O)c1ccccc1` (racemic) [Compound 22], the “Selectivity for VAP-1 SSAO over MAO” value was determined as 9. In addition, under setting [1], the IC50 worked out at 1.2 µM.

With `COc1ccc(C(O)CNN)cc1` (racemic) [Compound 36], the “Selectivity for VAP-1 SSAO over MAO” value was determined as 294. Also, under setting [1], the IC50 amounted to 0.017 µM.

Turning to `C[C@@H]([C@H](O)c1ccccc1)N(C)N` (racemic) [Compound 12], the “Selectivity for VAP-1 SSAO over MAO” value is 138. For the same molecule, the IC50 under setting [2] turned out to be 0.29 µM.

Take `CN(N)[C@H](c1ccccc1)C(O)c1ccccc1` (stereo in doubt) [Compound 5, (1R*,2S*)-2-(1-methylhydrazino)-1,2-diphenylethanol hydrogemnaleate]: the “Selectivity for VAP-1 SSAO over MAO” value is 132. Moreover, the IC50 under setting [1] is 0.41 µM.

Take `CN(N)CC(O)c1ccccc1Cl` (racemic) [Compound 29]: the “Selectivity for VAP-1 SSAO over MAO” value worked out at 85. Further, the half-maximal inhibitory concentration (IC50) under setting [1] was determined as 0.27 µM.

For `COc1ccc(CN(N)C(C)C(O)c2ccccc2)cc1` (racemic) [Compound 18], the “Selectivity for VAP-1 SSAO over MAO” value is reported as 9. For the same molecule, the IC50 under setting [1] was 2.6 µM.

Regarding `C[C@@H]([C@H](O)c1ccccc1)N(C)N` (relative stereo) [Compound 2, (1R*,2S*)-2-(1-Methylhydrazino)-1-phenyl-1-propanol hydrochloride], the “Selectivity for VAP-1 SSAO over MAO” value is reported as 111. Under setting [2], the IC50 came to 0.35 µM.

Take `NN(Cc1ccccc1)C1CCCCC1O` (racemic) [Compound 41]: the “Selectivity for VAP-1 SSAO over MAO” value was 5. In addition, the IC50 under setting [1] came to 21.9 µM.

`CN(N)[C@@H]1CCCC[C@]1(O)c1ccccc1` (racemic) [Compound 43]: the “Selectivity for VAP-1 SSAO over MAO” value came to 19. Further, under setting [1], the IC50 turned out to be 0.52 µM.

As to `CC(C(O)c1ccccc1)N(N)Cc1ccccc1` (racemic) [Compound 16], the “Selectivity for VAP-1 SSAO over MAO” value came to 62. Further, the IC50 under setting [1] was determined as 4 µM.

Values taken from US6624202B2, “Inhibitors of copper-containing amine oxidases” (priority 2000, dated 2003).
